The values that follow are results of earlier work, collected in US9447074B2, “Compounds” (Glaxo Group Limited, priority 2011, dated 2016).

For series [1], the system named is allergic rhinitis. The following applies: dosed intranasally, phase I/II.
Series [2] has as its system allergic rhinitis. The following applies: phase II.
For series [3], the system named is B-Cell non-Hodgkin's lymphoma (NHL).
In series [4] the test system is B lymphoma (BKS-2). The following applies: murine model of B lymphoma (BKS-2).

As for `Oc1cccc(Nc2ncc(F)c(Nc3cccc(O)c3)n2)c1` [Example R112], in series [1], the PGD2 entry is recorded as “statistically significant decrease” and the clinical safety result is reported as “safe across a range of indicators”. Moreover, the efficacy versus placebo result in series [2] is “lack of efficacy versus placebo”.
Regarding `COc1cc(Nc2ncc(F)c(Nc3ccc4c(n3)N(COP(=O)(O)O)C(=O)C(C)(C)O4)n2)cc(OC)c1OC` [Example R788, fostamatinib disodium], the therapeutic benefit entry in series [3] (patients with DLBCL and CLL/SLL) is on record as “therapeutic benefit”. Also, the tolerability result in series [3] (patients with relapsed or refractory B-Cell NHL) is listed as “well-tolerated”.
Take `COc1cc(/C=C/C(=O)CC(=O)/C=C/c2ccc(O)c(OC)c2)ccc1O` [curcumin]: the “tumour burden as measured by the total splenocyte number” value in series [4] is on record as “significant reduction of tumour burden”.
